In publication PMC10743086, “Immunofluorescence-Based Assay for High-Throughput Analysis of Multidrug Resistance Markers in Non-Small Cell Lung Carcinoma Patient-Derived Cells” (Diagnostics, 2023):

Legend:
Format in all cases: cell-based, human
[1] = test system: ABCG2 expression in cancer cells (CK8/18+); assay: Immunofluorescence assay of ABCG2 expression in patient-derived NSCLC cultures; conditions: 7 days
Method in brief: (§1)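 Cancer and non-cancer populations are told apart by a CK8/18 antibody cocktail after paraformaldehyde fixation and BSA blocking, with secondary antibodies applied 2 h at RT. Cultures derive from dissociated NSCLC resections, seeded 1000 cells/well. Compound exposure lasts 7 days, from 72 h post-seeding.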

[2] = test system: ABCB1 expression in cancer cells (CK8/18+); assay: Immunofluorescence assay of ABCB1 expression in patient-derived NSCLC cultures; conditions: 7 days
Method in brief: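 PDC from resected NSCLC, Tumor Dissociation Kit, DMEM/F12 + 5% FBS, hydrocortisone, insulin, EGF, adenine. 1000 cells/well; drug added at 72 h, 7 d exposure. Fix 4% PFA 20 min RT, block 2% BSA 1 h; CK8/18 co-stain with ABC markers.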

[3] = test system: MRC-5 cells; assay: Cytotoxicity by immunofluorescence cell scoring (cell counts), normal fibroblasts; conditions: Homo sapiens, MRC5, 24 h, 24 h treatment
Method in brief: (§2)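 Compounds added 48 h after seeding, then 24 h exposure. Cells fixed in 4% paraformaldehyde, BSA-blocked, co-stained for ABCB1 with CK8/18 to separate cancer from stromal cells; 4x automated imaging. Cytotoxicity from cell-count scoring; ABCB1 expression from multi-wavelength cell scoring.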

[4] = test system: ABCC1 expression in cancer cells (CK8/18+); assay: Immunofluorescence assay of ABCC1 expression in patient-derived NSCLC cultures; conditions: 7 days
Method in brief: as §1

[5] = test system: ABCB1 expression in NCI-H460 cells; assay: Immunofluorescence assay of MDR marker ABCB1 expression; conditions: five concentrations, 24 h
Method in brief: as §2

[6] = test system: ABCB1 expression in NCI-H460/R cells; assay: as above; conditions: five concentrations, 24 h
Method in brief: as §2

[7] = test system: ABCB1 expression in MRC-5 cells; assay: as above; conditions: five concentrations, 24 h
Method in brief: as §2

[8] = test system: NCI-H460 cells; assay: Cytotoxicity by immunofluorescence cell scoring (cell counts), NSCLC cell line; conditions: Homo sapiens, NCI-H460, 24 h, 24 h treatment
Method in brief: as §2

[9] = test system: Cancer cells (CK8/18+) of patient-derived NSCLC cultures; assay: Cytotoxicity in patient-derived NSCLC cultures, cancer cells; conditions: Homo sapiens, 168 h, 7 days treatment
Method in brief: as §1

[10] = test system: Non-cancer cells (CK8/18-) of patient-derived NSCLC cultures; assay: Cytotoxicity in patient-derived NSCLC cultures, non-cancer cells; conditions: Homo sapiens, 168 h, 7 days treatment
Method in brief: as §1

[11] = culture TR58, cancer cells (CK8/18+)
[12] = culture TR64, cancer cells (CK8/18+)
[13] = culture TR65, cancer cells (CK8/18+)
[14] = culture TR84, cancer cells (CK8/18+)
[15] = culture TR87, cancer cells (CK8/18+)
[16] = MRC-5 (co-culture with NCI-H460)
[17] = MRC-5 (co-culture with NCI-H460/R)
[18] = NCI-H460 (co-culture with MRC-5)
[19] = NCI-H460/R (co-culture with MRC-5)
[20] = culture TR58, non-cancer cells (CK8/18-)
[21] = culture TR64, non-cancer cells (CK8/18-)
[22] = culture TR65, non-cancer cells (CK8/18-)
[23] = culture TR84, non-cancer cells (CK8/18-)
[24] = culture TR87, non-cancer cells (CK8/18-)

| Compound | ABCG2 expression [1, 11] | ABCG2 expression [1, 12] | ABCG2 expression [1, 13] | ABCG2 expression [1, 14] | ABCG2 expression [1, 15] | ABCB1 Expression [2, 11] | ABCB1 Expression [2, 12] | ABCB1 Expression [2, 13] | ABCB1 Expression [2, 14] | ABCB1 Expression [2, 15] | IC50 [3, 16] | IC50 [3, 17] | IC50 ([3]; MRC-5 monoculture) | ABCC1 expression [4, 11] | ABCC1 expression [4, 12] | ABCC1 expression [4, 13] | ABCC1 expression [4, 14] | ABCC1 expression [4, 15] | ABCB1 Expression [5, 18] | ABCB1 Expression ([5]; NCI-H460 monoculture) | also measured |
| --- | --- | --- | --- | --- | --- | --- | --- | --- | --- | --- | --- | --- | --- | --- | --- | --- | --- | --- | --- | --- | --- |
| CCC1=C[C@@H]2CN(C1)Cc1c([nH]c3ccccc13)[C@@](C(=O)OC)(c1cc3c(cc1OC)N(C)[C@H]1[C@@](O)(C(=O)OC)[C@H](OC(C)=O)[C@]4(CC)C=CCN5CC[C@]31[C@@H]54)C2 [Vinorelbine] | increase (An increase in ABCB1, ABCC1, or ABCG2 expression of at least 20% at a minimum of one concentration is shown in the table.) | increase (An increase in ABCB1, ABCC1, or ABCG2 expression of at least 20% at a minimum of one concentration is shown in the table.) | increase (An increase in ABCB1, ABCC1, or ABCG2 expression of at least 20% at a minimum of one concentration is shown in the table.) | increase (An increase in ABCB1, ABCC1, or ABCG2 expression of at least 20% at a minimum of one concentration is shown in the table.) | increase (An increase in ABCB1, ABCC1, or ABCG2 expression of at least 20% at a minimum of one concentration is shown in the table.) | no change | increase (An increase in ABCB1, ABCC1, or ABCG2 expression of at least 20% at a minimum of one concentration is shown in the table.) | increase (An increase in ABCB1, ABCC1, or ABCG2 expression of at least 20% at a minimum of one concentration is shown in the table.) | increase (An increase in ABCB1, ABCC1, or ABCG2 expression of at least 20% at a minimum of one concentration is shown in the table.) | increase (An increase in ABCB1, ABCC1, or ABCG2 expression of at least 20% at a minimum of one concentration is shown in the table.) | 477 nM | > 1000 nM | > 1000 nM | no change | increase (An increase in ABCB1, ABCC1, or ABCG2 expression of at least 20% at a minimum of one concentration is shown in the table.) | increase (An increase in ABCB1, ABCC1, or ABCG2 expression of at least 20% at a minimum of one concentration is shown in the table.) | increase (An increase in ABCB1, ABCC1, or ABCG2 expression of at least 20% at a minimum of one concentration is shown in the table.) | increase (An increase in ABCB1, ABCC1, or ABCG2 expression of at least 20% at a minimum of one concentration is shown in the table.) | increase (An increase in ABCB1 expression of at least 20% at a minimum of one concentration is shown in the table.) | increase (An increase in ABCB1 expression of at least 20% at a minimum of one concentration is shown in the table.) | ABCB1 Expression [6, 19]: no change; ABCB1 Expression ([6]; NCI-H460/R monoculture): no change; ABCB1 Expression [7, 16]: no change; ABCB1 Expression [7, 17]: no change; ABCB1 Expression ([7]; MRC-5 monoculture): no change; IC50 [8, 18]: 33.3 nM; IC50 ([8]; NCI-H460 monoculture): 36.6 nM; IC50 [9, 11]: 129 nM; IC50 [9, 12]: 172 nM; IC50 [9, 13]: > 1000 nM; IC50 [9, 14]: 176 nM; IC50 [9, 15]: > 1000 nM; IC50 [10, 20]: 160 nM; IC50 [10, 21]: 184 nM; IC50 [10, 22]: 32.8 nM; IC50 [10, 23]: 33.9 nM; IC50 [10, 24]: 361 nM |
| CC(=O)O[C@H]1C(=O)[C@@]2(C)[C@H]([C@H](OC(=O)c3ccccc3)[C@]3(O)C[C@H](OC(=O)[C@H](O)[C@@H](NC(=O)c4ccccc4)c4ccccc4)C(C)=C1C3(C)C)[C@]1(OC(C)=O)CO[C@@H]1C[C@@H]2O [Paclitaxel, paclitaxel] | increase (An increase in ABCB1, ABCC1, or ABCG2 expression of at least 20% at a minimum of one concentration is shown in the table.) | increase (An increase in ABCB1, ABCC1, or ABCG2 expression of at least 20% at a minimum of one concentration is shown in the table.) | increase (An increase in ABCB1, ABCC1, or ABCG2 expression of at least 20% at a minimum of one concentration is shown in the table.) | increase (An increase in ABCB1, ABCC1, or ABCG2 expression of at least 20% at a minimum of one concentration is shown in the table.) | increase (An increase in ABCB1, ABCC1, or ABCG2 expression of at least 20% at a minimum of one concentration is shown in the table.) | increase (An increase in ABCB1, ABCC1, or ABCG2 expression of at least 20% at a minimum of one concentration is shown in the table.) | increase (An increase in ABCB1, ABCC1, or ABCG2 expression of at least 20% at a minimum of one concentration is shown in the table.) | increase (An increase in ABCB1, ABCC1, or ABCG2 expression of at least 20% at a minimum of one concentration is shown in the table.) | increase (An increase in ABCB1, ABCC1, or ABCG2 expression of at least 20% at a minimum of one concentration is shown in the table.) | increase (An increase in ABCB1, ABCC1, or ABCG2 expression of at least 20% at a minimum of one concentration is shown in the table.) | > 5000 nM | > 5000 nM | > 5000 nM | no change | increase (An increase in ABCB1, ABCC1, or ABCG2 expression of at least 20% at a minimum of one concentration is shown in the table.) | increase (An increase in ABCB1, ABCC1, or ABCG2 expression of at least 20% at a minimum of one concentration is shown in the table.) | increase (An increase in ABCB1, ABCC1, or ABCG2 expression of at least 20% at a minimum of one concentration is shown in the table.) | increase (An increase in ABCB1, ABCC1, or ABCG2 expression of at least 20% at a minimum of one concentration is shown in the table.) | increase (An increase in ABCB1 expression of at least 20% at a minimum of one concentration is shown in the table.) | increase (An increase in ABCB1 expression of at least 20% at a minimum of one concentration is shown in the table.) | ABCB1 Expression [6, 19]: no change; ABCB1 Expression ([6]; NCI-H460/R monoculture): no change; ABCB1 Expression [7, 16]: no change; ABCB1 Expression [7, 17]: no change; ABCB1 Expression ([7]; MRC-5 monoculture): no change; IC50 [8, 18]: 339 nM; IC50 ([8]; NCI-H460 monoculture): 381 nM; IC50 [9, 11]: 1180 nM; IC50 [9, 12]: 1350 nM; IC50 [9, 13]: 1180 nM; IC50 [9, 14]: 2570 nM; IC50 [9, 15]: 4790 nM; IC50 [10, 20]: 1400 nM; IC50 [10, 21]: 1950 nM; IC50 [10, 22]: 1400 nM; IC50 [10, 23]: 312 nM; IC50 [10, 24]: 1870 nM |
